Data published in patent publication US20230310554A1 (priority 2020, published 2023).
“And” between values parts separate entries of the source, which are not always exact repeats. Identical values can stand only once.

Legend:
[1] = test system: PC-12 cells; format: cell-based, rat; conditions: for EC50: read-out: EC50 of cyanide under existence of each antidote
[2] = test system: cyanide poisoning mouse models; parameters: species or system mouse (ddY); conditions: in vivo
[3] = test system: cyanide poisoning mouse models; parameters: species or system mouse (ddY); conditions: in vivo; remark: listed apart in the source
[4] = test system: cyanide poisoning mouse models; parameters: species or system mouse (ddY); conditions: in vivo; remark: listed apart in the source
[5] = test system: plasma proteins such as haptocorrin; conditions: cited from earlier work

Compound | cell viability compared with the control group to which only NaCN had been added [1] | EC50 [1] | mice survived [2] [%] | survival rate [3] | time required until the recovery (coma to awakening) [4] | reduction of antidotal ability by binding to plasma proteins [5]
O=S([O-])([O-])=S.[Na+].[Na+] [Na2S2O3, sodium thiosulfate] | had no effects | 9.98 mM and 12.5 mM and 12.1 mM and 10.4 mM and 10.7 mM | – | – | – | –
C/C1=C2/[N-][C@H]([C@H](CC(N)=O)[C@@]2(C)CCC(=O)NC[C@@H](C)OP(=O)([O-])O[C@H]2[C@@H](O)[C@@H](n3cnc4cc(C)c(C)cc43)O[C@@H]2CO)[C@]2(C)N=C(/C(C)=C3N=C(/C=C4N=C1[C@@H](CCC(N)=O)C\4(C)C)[C@@H](CCC(N)=O)[C@]\3(C)CC(N)=O)[C@@H](CCC(N)=O)[C@]2(C)CC(N)=O.[Co+3].[OH-] [OHCbl, hydroxocobalamin] | high survival rate | – | 50 | 90% and 70% and 60% | 4.8 min and 4.6 min | 1/600
metHb: methemoglobin produced by oxidizing OxyHb with sodium nitrite | significantly high survival rate | 23.3 mM and 28.8 mM and 31.1 mM and 19.1 mM | – | – | – | –
